Results on seven compounds are retold here after US9187496B2 (priority 2009, dated 2015).

Series [1] relates to HCV genotype 1b Conl strain subgenomic luciferase replicon (Zluc). As to the kind of experiment: Luciferase replicon assay, genotype 1b. Conditions: Hepatitis C virus, 72 h, read-out: EC50 1b. Format: cell-based. Here is the method:
(§1) The HCV luciferase replicon assay measures the ability of a test compound to inhibit HCV replication in cell culture after 3 days of treatment in a human hepatoma cell line (Huh-7) bearing a HCV replicon containing a luciferase-neomycin phosphotransferase fusion gene. The inhibition of HCV replication was measured by quantification of luciferase protein expression. Briefly, Huh-7 cells containing either the HCV genotype 1a H77 strain or genotype 1b Conl strain subgenomic luciferase replicon (H1a-luc or Zluc, respectively) were grown in DMEM containing glucose, L-glutamine and sodium pyruvate, 10% fetal bovine serum (FBS), 100 IU/mL penicillin, 100 μg/mL streptomycin, 2 mM GlutaMAX, non-essential amino acids and 0.25 (H1a-luc) or 0.5 (Zluc) mg/mL G418. GlutaMAX was obtained from Invitrogen, Corp.; all other media reagents were obtained from Mediatech, Inc. For dose-response testing, the cells were seeded in 96-well plates at 1×10^4 (H1a-luc) or 7.5×10^3 (Zluc) cells/well in a volume of 50 μL, and incubated at 37° C./5% CO2. Three hours after plating, 50 μL of ten 5-fold serial dilutions of compound were added, and cell cultures were incubated at 37° C./5% CO2 for 72 hours. In all cases, Huh-7 cells lacking the HCV replicon served as negative control. To assess luciferase expression, the media/compound was removed from the plates and ONE-glo Luciferase assay reagent (Promega) was added to each well. The assay plates were shaken for 3 minutes at room temperature and luciferase activity for each well was measured with a 1 sec read time on the Victor^3V multilabel counter using a 700 nm cut-off filter (Perkin Elmer). EC50 values were calculated from dose response curves from the resulting best-fit equations determined by Microsoft Excel and XLfit 4.1 software.
(In general: A replicon is a self-replicating genome or part of one, used to study replication in cells.)

Series [2] concerns HCV genotype 4a-specific NS5A gene within the 1b-replicon. The experiment in a line: Luciferase replicon assay, NS5A-intergenotypic stable cell line genotype 4a. In kind it is cell-based. Conditions: Hepatitis C virus, read-out: EC50 4a.
Description: (§2) The nucleotide sequences of the NS5A region of genotype 2a (GenBank Accession #AB047639), genotype 3a (GenBank Accession #D17763), and genotype 4a (GenBank Accession#DQ418788) were synthesized by an outside vendor. The NS5A region of each of these genotypes included the first 11 amino acids of the protease recognition sequence of genotype 1b, as well as the last 10 amino acids of genotype 1b. The NS5A gene cassettes were excised with site specific restriction endonucleases and ligated into a ZS11-luciferase genotype 1b backbone (backbone contains the genotype 1b NS3 protease, NS4a, NS4b, and NS5b coding regions) with similarly cut restriction enzyme sites. Thus, the newly constructed plasmid contains a genotype 2a-, 3a- or 4a-specific NS5A gene within the 1b-replicon.
(§3) These new intergenotypic plasmids were used to establish stable cell lines. RNA was generated from the NS5A intergenotypic plasmids and used in conjunction with a lipofectin reagent to transfect a cured Huh7 cell line. Transfected cells were selected for with G418. After selection has occurred the stable cell lines were propagated, tested for luciferase activity, and RT-PCR with genotype specific primers (either 1a, 2a, 3a, or 4a). Stable cell lines containing the intergenotypic replicon were then fully sequenced and analysed for proper expression of NS3, NS5A and NS5B proteins.
(§4) Drug titration analysis was performed using the luciferase replicon assay described herein.
as §1

For series [3], the system named is HCV genotype 3a-specific NS5A gene within the 1b-replicon. The experiment in a line: Luciferase replicon assay, NS5A-intergenotypic stable cell line genotype 3a. Format: cell-based. Conditions: Hepatitis C virus, read-out: EC50 3a.
Description: as §2, §3, §4, §1

Series [4] concerns HCV genotype 2a-specific NS5A gene within the 1b-replicon. As to the kind of experiment: Luciferase replicon assay, NS5A-intergenotypic stable cell line genotype 2a. In kind it is cell-based. Conditions: Hepatitis C virus, read-out: EC50 2a.
Description: as §2, §3, §4, §1

Series [5] is described as follows: Cytotoxicity evaluation in luciferase replicon cells (Cell Titer 96 AQueous One). Conditions: human; Table 1B, cellular viability. Format: cell-based, human. Here is the method: For cytotoxicity evaluation, H1a-luc or Zluc cells were treated with compounds as described above and cellular viability was monitored using the Cell Titer 96 AQueous One Solution Cell Proliferation Assay (Promega). Plates were then read at 490 nm in a Victor^3V 1420 multilabel counter (Perkin Elmer) and CC50 concentrations were determined using Microsoft Excel and XLfit 4.1 software.

The subject of series [6] is HCV genotype 1a H77 strain (H1a-luc replicon / 1a-H77NS5a intergenotypic replicon). The experiment in a line: Luciferase replicon assay, genotype 1a. In kind it is cell-based.
Description: To generate the 1a-H77NS5a intergenotypic plasmid, dual cut sites were inserted into the ZS11-luciferase genotype 1b backbone that would bracket the NS5a region almost in its entirety. Using PCR and 1a-H77 specific primers also containing the corresponding restriction enzyme sites, the NS5a gene was amplified from the 1a-H77 replicon. The ZS11-luciferase genotype 1b backbone and the genotype 1a NS5a PCR products were restriction enzyme digested and then ligated using standard molecular cloning techniques. The newly constructed plasmid contains the genotype 1a-specific NS5a gene where as the backbone remains 1b as described herein.
as §3, §4, §1

The test system of series [7] is Huh-7 cells containing HCV Con1 subgenomic replicon (GS4.1 cells). As to the kind of experiment: HCV replicon assay (NS5A ELISA). Conditions: Hepatitis C virus, Huh-7; GS4.1 cells, 72 hrs, NS5A ELISA; read-out: EC50. In kind it is cell-based. The method in brief:
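GS4.1 cells dosed 3 h after seeding with ten 2-fold dilutions from 75 μM, or single 15 μM, in 0.5% DMSO for 72 h at 37° C; NS5A measured by ELISA (A-236 antibody, OPD, A492). EC50 from four-parameter sigmoidal fit of % inhibition.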

The nature of series [8]: Cytotoxicity evaluation in GS4.1 cells (Cell Titer 96 AQueous One). Format: cell-based, human. Conditions: human, cellular viability. How it is done: (§5) For cytotoxicity evaluation, GS4.1 cells were treated with compounds as described above and cellular viability was monitored using the Cell Titer 96 AQueous One Solution Cell Proliferation Assay (Promega). CC50 values were determined from the % cytotoxicity versus concentration data with Tecan Magellan software as described above.

A further series relates to GS4.1 cells. The description is as above. In kind it is cell-based, human. Conditions: cellular viability. How it is done: as §5
Setting [9] is: Hepatitis C virus, read-out: EC50 1a, genotype 1a.

As usually defined, the EC50 is the concentration at which the effect is half-maximal. In general, CC50 refers to the concentration that lowers cell viability or growth by half.

The structures appear in SMILES notation. Like-named read-outs stand apart in the source and are kept apart here. A value given as a limit tells only on which side of the number the result lay.

`COC(=O)NC(C(=O)N1CCCC1c1ncc(-c2cc3sc(-c4ccc5[nH]c(C6CCCN6C(=O)C(NC(=O)OC)C(C)C)nc5c4)cc3s2)[nH]1)C(C)C` (stereo in doubt) [Compound A176, ((S)-1-{(S)-2-[5-(5-{(S)-2-[1-((S)-2-methoxycarbonylamino-3-methyl-butyryl)-pyrrolidin-2-yl]-3H-benzoimidazol-5-yl}-thieno[3,2-b]thiophen-2-yl)-1H-imidazol-2-yl]-pyrrolidine-1-carbonyl}-2-methyl-propyl)-carbamic acid methyl ester]: the EC50 in series [1] was less than 0.1 nM; in series [2], 0.1 to 1 nM; in [3], 0.1 to 1 nM; in [4] it was 0.1 to 1 nM; in series [6] (setting [9]), 0.1 to 1 nM. The same compound displayed a CC50 at 72 h in series [5] of 10 to 75 µM.
For the compound `COC(=O)N[C@@H](C(=O)N1CCCC1c1ncc(-c2cn3cc(-c4ccc(-c5cnc([C@@H]6CCCN6C(=O)[C@H](NC(=O)OC)c6ccccc6)[nH]5)cc4)nc3s2)[nH]1)c1ccccc1` (some centres unmarked) [A60], in series [7], the EC50 is less than 1 nM. The same compound showed a CC50 in [8] of more than 75 µM.
Consider `COC(=O)N[C@H](C(=O)N1CCCC1c1ncc(-c2csc3c(-c4ccc(-c5cnc(C6CCCN6C(=O)[C@H](NC(=O)OC)c6ccccc6)[nH]5)cc4)csc23)[nH]1)C(C)C` (some centres unmarked) [Compound A114], for which the EC50 in series [1] was less than 0.1 nM; in [2], less than 0.1 nM; in series [3], less than 0.1 nM; in series [4], less than 0.1 nM; in [6] (setting [9]), 0.1 to 1 nM; in series [6] (read-out: EC50 1a, genotype 1a) it was less than 0.1 nM.
Turning to `COC(=O)N[C@H](C(=O)N1CCC[C@H]1c1ncc(-c2ccc(-c3cc4sc(-c5cnc([C@@H]6CCCN6C(=O)[C@@H](NC(=O)OC)C(C)C)[nH]5)cc4s3)cc2)[nH]1)C(C)C` [Compound A126, [(S)-1-((S)-2-{5-[4-(5-{2-[(S)-1-((S)-2-Methoxycarbonylamino-3-methyl-butyryl)-pyrrolidin-2-yl]-3H-imidazol-4-yl}-thieno[3,2-b]thiophen-2-yl)-phenyl]-1H-imidazol-2-yl}-pyrrolidine-1-carbonyl)-2-methyl-propyl]-carbamic acid methyl ester], the concentration for a half-maximal effect (EC50) in [1] is less than 0.1 nM; in [7] it was less than 1 nM; in [2], less than 0.1 nM; in series [3], 1 to 10 nM; in series [4] it was 0.1 to 1 nM. The same compound had a CC50 at 72 h in series [5] of more than 75 µM. In addition, the CC50 with GS4.1 cells was more than 75 µM.
With `COC(=O)N[C@H](C(=O)N1CCC[C@H]1c1nc(-c2ccc(-c3csc4c(Br)csc34)cc2)c[nH]1)C(C)C` [Compound A155, [(S)-1-((S)-2-{4-[4-(6-bromo-thieno[3,2-b]thiophen-3-yl)-phenyl]-1H-imidazol-2-yl}-pyrrolidine-1-carbonyl)-2-methyl-propyl]-carbamic acid methyl ester], the half-maximal effective concentration (EC50) in series [7] was in the range of 10 to 100 nM. In series [8], this compound had a 50% cytotoxic concentration (CC50) of 10 to 75 µM.
In the case of `COC(=O)N[C@H](C(=O)N1CCC[C@H]1c1ncc(-c2ccc(-c3cc4sc(-c5ccc6[nH]c([C@@H]7CCCN7C(=O)[C@H](NC(=O)OC)c7ccccc7)nc6c5)cc4s3)cc2)[nH]1)C(C)C` [Compound A194, [(S)-1-((S)-2-{4-[4-(5-{(S)-2-[1-((R)-2-methoxycarbonylamino-2-phenyl-acetyl)-pyrrolidin-2-yl]-3H-benzoimidazol-5-yl}-thieno[3,2-b]thiophen-2-yl)-phenyl]-1H-imidazol-2-yl}-pyrrolidine-1-carbonyl)-2-methyl-propyl]-carbamic acid methyl ester], the EC50 in [1] was less than 0.1 nM; in [2] it was less than 0.1 nM; in [3], 0.1 to 1 nM; in series [4], 1 to 10 nM; in [6] (setting [9]) it was 0.1 to 1 nM. The compound further returned a CC50 at 72 h in series [5] of more than 75 µM.
For `COC(=O)N[C@H](C(=O)N1CCC[C@H]1c1nc2ccc(-c3csc4c(-c5ccc6nc([C@@H]7CCCN7C(=O)[C@H](NC(=O)OC)c7ccccc7)[nH]c6c5)csc34)cc2[nH]1)C(C)C` [Compound A208], the EC50 in series [1], in series [2], in series [3], in [4] and in series [6] (setting [9]) was less than 0.1 nM each time. This compound also had a CC50 at 72 h in series [5] of more than 75 µM.
